# Non-standard residues stand in square brackets, D forms with d. Residues, ends and D or L forms follow the SMILES beside them. No end group written: not given here. *: point of attachment. Phe(4-N(CH2CH2Cl)2) = N[C@@H](Cc1ccc(N(CCCl)CCCl)cc1)C(=O)O; Chlorambucil = O=C(CCCc1ccc(N(CCCl)CCCl)cc1)*
# Experiments:
# melanoma cells = test: MTT assay for estimation of toxicity, melanoma cells; type: cell-based; conditions: Homo sapiens, 72 hours, FIG. 5B
# Description: (§1) Human melanoma cells (WW-94) were grown in 50% DMEM/50% F-12 medium supplemented with 10% fetal calf serum and antibiotics.
# (§2) HUVEC or melanoma cells were seeded in 96-well ELISA dish at a concentration of 10,000-20,000 cells/well, and various concentrations of the prodrug 1 were added to the wells as described in Example 17. As a control, Melphalan was added under the same experimental conditions. After 72 hours the medium was aspirated, and DMEM containing 5% FCS and 0.5 mg/ml MTT (an indicator of cell viability) was added. The cells were incubated for 2-4 hours at 37° C. and 5% CO2. At the end of the incubation the cells were washed with phosphate buffer saline (PBS), and dissolved with DMSO. The results were analysed using Techan ELISA reader equipped with a 570 nm filter.
# HUVEC = test: MTT assay for estimation of toxicity, HUVEC (normal cells); type: cell-based, human
# Description: (§3) Human umbilical vein-derived endothelial cells (HUVEC) were prepared from umbilical veins and cultured as described previously. The HUVE cells were grown in M199 medium supplemented with 20% fetal calf serum, vitamins, 1 ng/ml hbFGF, and antibiotics.
# as §2
# [1] = test system: Human umbilical vein-derived endothelial cells (HUVEC); test: Tissue culture cell counting (cell coulter) after 72 hours, HUVEC (normal cells); type: cell-based
# Description: as §3
# (§4) To determine the biological activity of the drugs, HUVEC (normal cells) or melanoma (cancer) cells were seeded in 24-well dish at a concentration of 10,000-20,000 cells/well, and increasing concentrations of the prodrug 3-Peptide I-Chlorambucil (P-CAC) were added to the wells. As controls, either Cholorambucil or the peptide carrier was added under the same experimental conditions. After 72 hours the cells were washed with phosphate buffer saline (PBS), suspended with 0.5% EDTA/PBS, and counted using cell coulter (Electronics ZM). Cell viability was verified by trypan-blue staining and hemocytometer analysis. IC50 indicates the concentration of the drug measured at 50% of the cell death.
# purified MMPs = test: In-vitro release of Chlorambucil from the peptide carrier by purified MMPs; type: biochemical
# Description: (§5) In-vitro release of Chlorambucil from the peptide carrier was carried out in a liquid phase as described in Example 19. Peptide I-Chlorambucil was dissolved in PBS, and incubated for 2 hours at 37° C. in the absence or presence of purified MMPs, or in the presence of conditioned medium of either human melanoma cells (HMCM) or human breast cancer cells (BCCM).
# (§6) At the end of the incubation the reaction mixture was incubated with heparin-sepharose (30 minutes at 0° C.). The supernatant was collected, and the release of free chlorambucil was monitored by spectrophotometer at a wavelengh of 305 nm.
# [2] = test system: MMPs secreted by cancer cells (conditioned medium of human melanoma cells HMCM or human breast cancer cells BCCM); test: In-vitro release of Chlorambucil from the peptide carrier by cancer cell conditioned medium; type: biochemical; conditions: PBS, 2 hours at 37° C., FIG. 6
# Description: To find out whether proteases are secreted to the conditioned medium of cancer cells, breast cancer cells or melanoma cells were grown to sub-confluence in a 10 cm dish. The cells were washed with PBS, and further incubated with serum free medium. HUVE cells were grown to confluence at 10 cm dish. The cells were washed with M-199 medium, and conditioned with M-199 with 1% heat inactivated serum. The conditioned medium was collected after 24 hours.
# as §5, §6
# [3] = test system: Human melanoma cells (WW-94); test: Tissue culture cell counting (cell coulter) after 72 hours, melanoma cells; type: cell-based; conditions: melanoma (cancer) cells, FIG. 4A, read-out: IC50 (concentration of the drug measured at 50% of the cell death)
# Description: as §1, §4
compound,measurement,setting,value
"N[C@@H](Cc1ccc(N(CCCl)CCCl)cc1)C(=O)O [Melphalan, reference compound]",IC50,melanoma cells,70 nM
same,IC50,"HUVEC; Homo sapiens, HUVEC, HUVE cells, 72 hours, FIG. 5A",100 nM
"CC[C@H](C)[C@H](NC(=O)CNC(=O)[C@H](CC(C)C)NC(=O)[C@H](CC(C)C)NC(=O)CNC(=O)[C@H](Cc1ccc(O)cc1)NC(=O)CCCc1ccc(N(CCCl)CCCl)cc1)C(=O)N[C@@H](C)C(=O)NCC(=O)N1CCC[C@H]1C(=O)N1CCC[C@H]1C(=O)NCC(=O)N1CCC[C@H]1C(=O)N1CCC[C@H]1C(=O)N[C@@H](CC(C)C)C(=O)N[C@@H](Cc1ccc(O)cc1)C(=O)N[C@@H](CCCCN)C(=O)N[C@@H](CCCCN)C(=O)N[C@H](C(=O)N[C@H](C(=O)N[C@@H](CCCCN)C(=O)N[C@@H](CCCCN)C(=O)N[C@@H](CC(C)C)C(=O)N[C@@H](CC(C)C)C(=O)N[C@@H](CCC(N)=O)C(=O)N[C@@H](CO)C(=O)O)[C@@H](C)CC)[C@@H](C)CC [Prodrug 3, Peptide I-Chlorambucil] (Chlorambucil-YGLLGIAGPPGPPLYKKIIKKLLQS-OH)",times less toxic to normal cells,"[1]; HUVE cells versus melanoma cells, cell counting",30 times
same,effect of heparin on release of the chemotherapeutic agent from the peptide carrier,"purified MMPs; presence of 10 μg/ml heparin, 2 hours incubation",inhibited the release
same,release of free chlorambucil from the peptide carrier,"purified MMPs; purified MMPs, PBS, 2 hours at 37° C., read at 305 nm, FIG. 6",can be released
same,release of free chlorambucil from the peptide carrier,[2],can be released
"CC[C@H](C)[C@H](NC(=O)CNC(=O)[C@H](CC(C)C)NC(=O)[C@H](CC(C)C)NC(=O)CNC(=O)[C@H](Cc1ccc(O)cc1)NC(=O)[C@@H](N)Cc1ccc(N(CCCl)CCCl)cc1)C(=O)N[C@@H](C)C(=O)NCC(=O)N1CCC[C@H]1C(=O)N1CCC[C@H]1C(=O)NCC(=O)N1CCC[C@H]1C(=O)N1CCC[C@H]1C(=O)N[C@@H](CC(C)C)C(=O)N[C@@H](Cc1ccc(O)cc1)C(=O)N[C@@H](CCCCN)C(=O)N[C@@H](CCCCN)C(=O)N[C@H](C(=O)N[C@H](C(=O)N[C@@H](CCCCN)C(=O)N[C@@H](CCCCN)C(=O)N[C@@H](CC(C)C)C(=O)N[C@@H](CC(C)C)C(=O)N[C@@H](CCC(N)=O)C(=O)N[C@@H](CO)C(=O)O)[C@@H](C)CC)[C@@H](C)CC [Prodrug 1, Peptide I-Melphalan] (H-[Phe(4-N(CH2CH2Cl)2)]YGLLGIAGPPGPPLYKKIIKKLLQS-OH; N-terminus and C-terminus assumed)",times less toxic to normal cells,HUVEC; HUVE cells versus melanoma cells,7 times
"O=C(O)CCCc1ccc(N(CCCl)CCCl)cc1 [Chlorambucil, reference compound]",IC50,[3],2000 nM
same,IC50,"[1]; Homo sapiens, HUVEC, HUVE (normal) cells, 72 hours, cell counting, FIG. 4B, read-out: IC50 (concentration of the drug measured at 50% of the cell death)",2000 nM
YGLLGIAGPPGPPLYKKIIKKLLQS [peptide carrier],toxicity to HUVEC,"[1]; HUVEC, 72 hours, FIG. 4",not toxic

# Reference: patent US8314060B2, “Peptide conjugated anti-cancer prodrugs” (BioSight Ltd., priority 2000, dated 2012)
